Activity calls are given as the source filed them. The calls are words filed in the database; no cut-off is given here.
How the values were obtained:
SW-620 [1] = test: Antiproliferative activity against human SW-620 cells assessed as reduction in cell viability incubated for 48 hrs by CCK-8 assay; type: functional, cell-based; conditions: for IC50: SW-620, 48 h
SW-620 [2] = test: Antiproliferative activity against human SW-620 cells assessed as reduction in cell viability at 40 uM incubated for 48 hrs by CCK-8 assay; type: functional, cell-based
MDA-MB-231 = test: Antiproliferative activity against human MDA-MB-231 cells assessed as reduction in cell viability by CCK-8 assay; type: functional, cell-based; conditions: dose 40.0 µM, time 48.0 hrs
MCF7 = test: Antiproliferative activity against human MCF7 cells assessed as reduction in cell viability by CCK-8 assay; type: functional, cell-based; conditions: dose 40.0 µM, time 48.0 hrs
PANC-1 = test: Antiproliferative activity against human PANC-1 cells assessed as reduction in cell viability by CCK-8 assay; type: functional, cell-based
SMMC-7721 = test: Antiproliferative activity against human SMMC-7721 cells assessed as reduction in cell viability by CCK-8 assay; type: functional, cell-based
A549 = test: Antiproliferative activity against human A549 cells assessed as reduction in cell viability by CCK-8 assay; type: functional, cell-based
[3] = Cytotoxicity against human BEAS-2B cells assessed as inhibition of cell growth at 40 uM incubated for 48 hrs by CCK-8 assay relative to control; type: toxicity, cell-based
SW-620 [4] = test: Antiproliferative activity against human SW-620 cells assessed as inhibition of cell proliferation by measuring decrease in fluorescence intensity incubated for 48 hrs by EdU incorporation based fluorescence microscopic analysis; type: functional; conditions: dose 1.25-5 µM
SW-620 [5] = test: Antiproliferative activity against human SW-620 cells assessed as change in F-actin cytoskeleton morphology at 1.25 uM incubated for 48 hrs by DAPI staining based laser confocal microscope analysis; type: functional, cell-based
SW-620 [6] = test: Antiproliferative activity against human SW-620 cells assessed as change in F-actin cytoskeleton density at 2.5 to 5 uM incubated for 48 hrs by DAPI staining based laser confocal microscope analysis; type: functional, cell-based; conditions: dose 2.5-5 µM
SW-620 [7] = test: Induction of apoptosis in human SW-620 cells assessed as decrease in Bcl-2 expression at 1.25 to 5 uM incubated for 48 hrs by Western blotting analysis; type: functional, cell-based; conditions: dose 1.25-5 µM
SW-620 [8] = test: Induction of apoptosis in human SW-620 cells assessed as increase in Bax expression at 1.25 to 5 uM incubated for 48 hrs by Western blotting analysis; type: functional, cell-based; conditions: dose 1.25-5 µM
SW-620 [9] = test: Induction of apoptosis in human SW-620 cells assessed as increase in Bax/Bcl-2 ratio incubated for 48 hrs by Western blotting analysis; type: functional, cell-based; conditions: dose 1.25-5 µM
SW-620 [10] = test: Induction of apoptosis in human SW-620 cells assessed as viable cells at 1.25 uM incubated for 48 hrs by Annexin V FITC/PI staining based flow cytometry analysis (reference value: 90.0 %); type: functional; conditions: read-out: Activity
SW-620 [11] = test: Induction of apoptosis in human SW-620 cells assessed as early apoptotic cells at 1.25 uM incubated for 48 hrs by Annexin V FITC/PI staining based flow cytometry analysis (reference value: 5.00 %); type: functional
SW-620 [12] = test: Induction of apoptosis in human SW-620 cells assessed as late apoptotic cells at 1.25 uM incubated for 48 hrs by Annexin V FITC/PI staining based flow cytometry analysis (reference value: 4.90 %); type: functional
SW-620 [13] = test: Induction of apoptosis in human SW-620 cells assessed as necrotic cells at 1.25 uM incubated for 48 hrs by Annexin V FITC/PI staining based flow cytometry analysis (reference value: 0.057 %); type: functional
SW-620 [14] = test: Induction of apoptosis in human SW-620 cells assessed as viable cells at 2.5 uM incubated for 48 hrs by Annexin V FITC/PI staining based flow cytometry analysis (reference value: 90.0 %); type: functional; conditions: read-out: Activity
SW-620 [15] = test: Induction of apoptosis in human SW-620 cells assessed as early apoptotic cells at 2.5 uM incubated for 48 hrs by Annexin V FITC/PI staining based flow cytometry analysis (reference value: 5.00 %); type: functional
SW-620 [16] = test: Induction of apoptosis in human SW-620 cells assessed as late apoptotic cells at 2.5 uM incubated for 48 hrs by Annexin V FITC/PI staining based flow cytometry analysis (reference value: 4.90 %); type: functional
SW-620 [17] = test: Induction of apoptosis in human SW-620 cells assessed as necrotic cells at 2.5 uM incubated for 48 hrs by Annexin V FITC/PI staining based flow cytometry analysis (reference value: 0.057 %); type: functional
SW-620 [18] = test: Induction of apoptosis in human SW-620 cells assessed as viable cells at 5 uM incubated for 48 hrs by Annexin V FITC/PI staining based flow cytometry analysis (reference value: 90.0 %); type: functional; conditions: read-out: Activity
SW-620 [19] = test: Induction of apoptosis in human SW-620 cells assessed as early apoptotic cells at 5 uM incubated for 48 hrs by Annexin V FITC/PI staining based flow cytometry analysis (reference value: 5.00 %); type: functional
SW-620 [20] = test: Induction of apoptosis in human SW-620 cells assessed as late apoptotic cells at 5 uM incubated for 48 hrs by Annexin V FITC/PI staining based flow cytometry analysis (reference value: 4.90 %); type: functional
SW-620 [21] = test: Induction of apoptosis in human SW-620 cells assessed as necrotic cells at 5 uM incubated for 48 hrs by Annexin V FITC/PI staining based flow cytometry analysis (reference value: 0.057 %); type: functional
U-937 [22] = test: Effect on cell survival in RSL3-induced human U-937 cells at 50 uM; type: functional, cell-based
U-937 [23] = test: Antiproliferative activity against human U-937 cells assessed as reduction in cell viability incubated for 48 hrs by CCK-8 assay; type: toxicity, cell-based; conditions: u-937, 48 h, 50 µM
CCRF-CEM = test: Antiproliferative activity against human CCRF-CEM cells assessed as reduction in cell viability incubated for 48 hrs by CCK-8 assay; type: functional, cell-based
Jurkat = test: Antiproliferative activity against human Jurkat cells assessed as reduction in cell viability incubated for 48 hrs by CCK-8 assay; type: functional, cell-based
THP-1 = test: Antiproliferative activity against human THP-1 cells assessed as reduction in cell viability incubated for 48 hrs by CCK-8 assay; type: functional, cell-based; conditions: THP-1, 48 h
K562 = test: Antiproliferative activity against human K562 cells assessed as reduction in cell viability incubated for 48 hrs by CCK-8 assay; type: functional, cell-based; conditions: K562, 48 h
U-937 [24] = test: Inhibition of RSL3-induced ferroptosis in human U-937 cells; type: functional, cell-based

COc1cccc2c1C(=O)c1c(O)c3c(c(O)c1C2=O)C[C@@](O)(C(=O)CO)C[C@@H]3O[C@H]1C[C@H](N)[C@H](O)[C@H](C)O1 [DOXORUBICIN] showed an IC50 (SW-620 [1]) of 2.3 µM.
For C[C@H](/C=C/[C@H](CO)C(C)(C)O)[C@H]1CCC2=C3C=CC4=CC(=O)CC[C@]4(C)[C@H]3CC[C@@]21C, the Activity (SW-620 [2]) was “Active”, the Activity (MDA-MB-231) was “inactive” and the Activity (MCF7) was “inactive”. The Activity (PANC-1) was “inactive”, the Activity (SMMC-7721) was “inactive” and the Activity (A549) was “inactive”. The Activity (SW-620 [1]) was “Dose-Dependent Effect”, the IC50 (SW-620 [1]) was 3.1 µM and the inhibition at 48 h, 40 µM [3] was under 7%. For the same compound, the Activity (SW-620 [4]) was “Dose-Dependent Effect”, the Activity (SW-620 [5]) was “Active” and the Activity (SW-620 [6]) was “Active”. For the same compound, the Activity (SW-620 [7]) was “Active”, the Activity (SW-620 [8]) was “Active” and the Activity (SW-620 [9]) was “Dose-Dependent Effect”. For the same compound, the viability at 1.25 µM (SW-620 [10]) was 79.1%, the Activity (SW-620 [11]) was 6.2% and the Activity (SW-620 [12]) was 14.1%. It also gave an Activity (SW-620 [13]) of 0.63%, a viability at 2.5 µM (SW-620 [14]) of 23.6% and an Activity (SW-620 [15]) of 12.4%. The Activity (SW-620 [16]) was 61.4%, the Activity (SW-620 [17]) was 2.55% and the viability at 5 µM (SW-620 [18]) was 3.35%. For the same compound, the Activity (SW-620 [19]) was 14.6%, the Activity (SW-620 [20]) was 80.8% and the Activity (SW-620 [21]) was 1.23%.
In the case of CO[C@@H]1C[C@H]([C@H](C)/C=C/[C@H](CO)C(C)(C)O)[C@]2(C)C1=C1C=CC3=CC(=O)CC[C@]3(C)[C@H]1C[C@H]2O, the Activity (U-937 [22]) is reported as “Active”.
With CC(=O)O[C@H]1C[C@H]([C@H](C)/C=C/[C@H](CO)C(C)(C)O)[C@]2(C)C1=C1C=CC3=CC(=O)CC[C@]3(C)[C@H]1C[C@H]2O the Activity (U-937 [22]) was “Active”.
For C[C@H](/C=C/[C@H](C)C(C)(C)O)[C@H]1C[C@H](O)C2=C3C=CC4=CC(=O)CC[C@]4(C)[C@H]3C[C@@H](O)[C@@]21C, the Activity (U-937 [22]) was “Active”.
In the case of CO[C@H]1C[C@H]([C@H](C)/C=C/[C@H](CO)C(C)(C)O)[C@]2(C)C1=C1C=CC3=CC(=O)CC[C@]3(C)[C@H]1C[C@H]2O, the Activity (U-937 [22]) is reported as “Active”.
In the case of C[C@H](/C=C/[C@H](CO)C(C)(C)O)[C@H]1C[C@H](O)C2=C3C=CC4=CC(=O)CC[C@]4(C)[C@H]3C[C@@H](O)[C@@]21C, the Activity (U-937 [22]) is reported as “Active”.
In the case of C[C@H](/C=C/[C@H](CO)C(C)(C)O)[C@H]1CCC2=C3C=CC4=CC(=O)CC[C@]4(C)[C@H]3C[C@@H](O)[C@@]21C, the Activity (SW-620 [2]) is reported as “Active”, the Activity (MDA-MB-231) is reported as “inactive” and the Activity (MCF7) is reported as “inactive”. The Activity (PANC-1) was “inactive”, the Activity (SMMC-7721) was “inactive” and the Activity (A549) was “inactive”. For the same compound, the Activity (SW-620 [1]) was “Dose-Dependent Effect”, the IC50 (SW-620 [1]) was 8.4 µM and the inhibition at 48 h, 40 µM [3] was under 7%. For the same compound, the Activity (U-937 [22]) was “Active”, the Activity (U-937 [23]) was “Toxic” and the IC50 (CCRF-CEM) was 5.7 µM. The IC50 (Jurkat) was 5.7 µM, the IC50 (THP-1) was 5.7 µM and the IC50 (K562) was 5.7 µM.
With C[C@H](/C=C/[C@H](CO)C(C)(C)O)[C@H]1CC(=O)C2=C3C=CC4=CC(=O)CC[C@]4(C)[C@H]3C[C@@H](O)[C@@]21C the Activity (U-937 [22]) was “Active”.
Compound CC(=O)O[C@H]1C[C@H]([C@H](C)/C=C/[C@H](C)C(C)(O)CO)[C@]2(C)C1=C1C=CC3=CC(=O)CC[C@]3(C)[C@H]1C[C@H]2O (stereo not given in full) has an EC50 (U-937 [24]) of 30 µM.

Source: ChEMBL document CHEMBL5532713, “Ergone Derivatives from the Deep-Sea-Derived Fungus Aspergillus terreus YPGA10 and 25,28-Dihydroxyergone-Induced Apoptosis in Human Colon Cancer SW620 Cells” (J Nat Prod, 2024)
